Source: patent US20240238250A1, “METHOD OF USING PIROMELATINE FOR TREATING PARASOMNIAS ASSOCIATED WITH LOSS OF REM SLEEP ATONIA” (NEURIM PHARMACEUTICALS (1991) LTD., priority 2023, published 2024)
“Also recorded” adds a separate entry of the source.

Key:
[1] = tested on: patients with primary insomnia; experiment: NREM sleep EEG spectral power after 4-week treatment, 3-arm parallel group study versus placebo; type: in vivo, human; conditions: 4-wks treatment, 20 and 50 mg; compared to baseline and to placebo
Method: NREM sleep EEG power was calculated to evaluate the effects of chronic (4-week) administration of 20 mg and 50 mg piromelatine compared to those of placebo in patients with primary insomnia. Sleep EEG was recorded in 9 different centers in the frame of a 3-arm parallel group study with a random allocation of patients to one of the three treatment group (i.e., of the 121 patients who had exploitable sleep EEG data, 42 received placebo, 39 received piromelatine 20 mg, and 40 received piromelatine 50 mg).
Spectral power was calculated for all-night) and NREM sleep for the total EEG spectrum [0.5; 32] Hz and in the following frequency bands: delta [0.5; 4] Hz, theta [4; 8] Hz, alpha [8; 13] Hz, sigma [11.5; 15.5] Hz, beta [15.5; 32] Hz, beta1 [15.5; 20.5] Hz, beta2 [20.5; 25.5] Hz, and beta3 [25.5; 32] Hz.

[2] = tested on: patients with primary insomnia; experiment: REM sleep EEG spectral power after 4-week treatment, 3-arm parallel group study versus placebo; type: in vivo, human; conditions: for REM EEG spectral power, Alpha power ([8; 13] Hz) / REM EEG spectral power, Beta1 power ([15.5; 20.5] Hz) / REM EEG spectral power, Beta2 power ([20.5; 25.5] Hz) / REM EEG spectral power, Beta3 power ([25.5; 32] Hz) / REM EEG spectral power, Beta power ([15.5; 32] Hz) / REM EEG spectral power, Delta power ([0.5; 4] Hz) / REM EEG spectral power, Sigma power ([11.5; 15.5] Hz) / REM EEG spectral power, Theta power ([4; 8] Hz) / REM EEG spectral power, Total EEG power ([0.5; 32] Hz): 4 wks, whole night sleep
Method: REM sleep EEG power was calculated to evaluate the effects of chronic (4-week) administration of 20 mg and 50 mg piromelatine compared to those of placebo in patients with primary insomnia. Sleep EEG was recorded in 9 different centers in the frame of a 3-arm parallel group study with a random allocation of patients to one of the three treatment group (i.e., of the 121 patients who had exploitable sleep EEG data, 42 received placebo, 39 received piromelatine 20 mg, and 40 received piromelatine 50 mg).
Spectral power was calculated for all-night) and REM sleep for the total EEG spectrum [0.5; 32] Hz and in the following frequency bands: delta [0.5; 4] Hz, theta [4; 8] Hz, alpha [8; 13] Hz, sigma [11.5; 15.5] Hz, beta [15.5; 32] Hz, beta1 [15.5; 20.5] Hz, beta2 [20.5; 25.5] Hz, and beta3 [25.5; 32] Hz.
Note, REM sleep is longest during the third part of the night.

In the case of `COc1ccc2[nH]cc(CCNC(=O)c3cc(=O)cco3)c2c1` [Piromelatine, N-(2-(5-methoxy-1H-indol-3-yl)ethyl)-4-oxo-4H-pyran-2-carboxamide], the “effect on NREM low frequency band (0.5-1.5 Hz) (in words)” value [1] is reported as “can increase the NREM low frequency band”, the “effect on REM sleep alpha power band (in words)” value ([2]; 4-wks treatment, 20 and 50 mg, compared to baseline and to placebo, in particular during the longest REM period in the third part of the night sleep) is reported as “increases the spectral power in the a band during REM sleep; also recorded: enhances the REM sleep alpha power band” and the “effect on other frequencies during REM sleep (in words)” value ([2]; patients with insomnia aged 20-80 years) is reported as “minor or no changes in other frequencies”. The “REM EEG spectral power, Alpha power ([8; 13] Hz)” value ([2]; piromelatine 20 mg, n = 39) was 103.36 % of baseline values, the “REM EEG spectral power, Beta1 power ([15.5; 20.5] Hz)” value ([2]; piromelatine 20 mg, n = 39) was 100.36 % of baseline values and the “REM EEG spectral power, Beta2 power ([20.5; 25.5] Hz)” value ([2]; piromelatine 20 mg, n = 39) was 98.51 % of baseline values. For the same molecule, the “REM EEG spectral power, Beta3 power ([25.5; 32] Hz)” value ([2]; piromelatine 20 mg, n = 39) was 97.56 % of baseline values, the “REM EEG spectral power, Beta power ([15.5; 32] Hz)” value ([2]; piromelatine 20 mg, n = 39) was 98.95 % of baseline values and the “REM EEG spectral power, Delta power ([0.5; 4] Hz)” value ([2]; piromelatine 20 mg, n = 39) was 100.29 % of baseline values. For the same molecule, the “REM EEG spectral power, Sigma power ([11.5; 15.5] Hz)” value ([2]; piromelatine 20 mg, n = 39) was 100.34 % of baseline values, the “REM EEG spectral power, Theta power ([4; 8] Hz)” value ([2]; piromelatine 20 mg, n = 39) was 101.45 % of baseline values and the “REM EEG spectral power, Total EEG power ([0.5; 32] Hz)” value ([2]; piromelatine 20 mg, n = 39) was 99.76 % of baseline values. For the same molecule, the “REM EEG spectral power, Beta1 power ([15.5; 20.5] Hz)” value ([2]; piromelatine 50 mg, n = 40) was 98.19 % of baseline values, the “REM EEG spectral power, Beta2 power ([20.5; 25.5] Hz)” value ([2]; piromelatine 50 mg, n = 40) was 99.93 % of baseline values and the “REM EEG spectral power, Beta3 power ([25.5; 32] Hz)” value ([2]; piromelatine 50 mg, n = 40) was 97.73 % of baseline values. For the same molecule, the “REM EEG spectral power, Beta power ([15.5; 32] Hz)” value ([2]; piromelatine 50 mg, n = 40) was 99.55 % of baseline values, the “REM EEG spectral power, Delta power ([0.5; 4] Hz)” value ([2]; piromelatine 50 mg, n = 40) was 103.73 % of baseline values and the “REM EEG spectral power, Sigma power ([11.5; 15.5] Hz)” value ([2]; piromelatine 50 mg, n = 40) was 103.14 % of baseline values. The “REM EEG spectral power, Theta power ([4; 8] Hz)” value ([2]; piromelatine 50 mg, n = 40) was 105.03 % of baseline values, the “REM EEG spectral power, Total EEG power ([0.5; 32] Hz)” value ([2]; piromelatine 50 mg, n = 40) was 105.33 % of baseline values and the “REM EEG spectral power, Alpha power ([8; 13] Hz)” value ([2]; piromelatine 50 mg, n = 40, * significant difference (P < 0.05) compared to placebo) was 106.55* % of baseline values.
